Among the data in ChEMBL document CHEMBL1157329, “Granulatamides A and B, cytotoxic tryptamine derivatives from the soft coral Eunicella granulata” (2006) are GI50 values, retold here.

Structures are written as SMILES.

Holding throughout (assay type): functional
Experiment [1] concerns LoVo. The experiment is described as follows: Cytotoxicity against human doxorubicin-resistant LOVO cells by SRB assay. For orientation: The SRB assay estimates cell density from bound dye.
Experiment [2] has as its system SK-MEL-28. The experiment is described as follows: Cytotoxicity against human SK-MEL-28 cells by SRB assay.
Experiment [3] in a line: Cytotoxicity against human IGROV cells by SRB assay.
Experiment [4] is described as follows: Cytotoxicity against human ecteinascidin-743-resistant IGROV-ET cells by SRB assay.
Experiment [5] relates to K562. The experiment is described as follows: Cytotoxicity against human K562 cells by SRB assay.
The test system of experiment [6] is LNCaP. The experiment is described as follows: Cytotoxicity against human LNcaP cells by SRB assay.
Experiment [7] relates to HT-29. Put plainly: Cytotoxicity against human HT29 cells by SRB assay.
For experiment [8], the system named is DU-145. Put plainly: Cytotoxicity against human DU145 cells by SRB assay.
Experiment [9] deals with A549. The experiment is described as follows: Cytotoxicity against human A549 cells by SRB assay.
The test system of experiment [10] is LoVo. Put plainly: Cytotoxicity against human LOVO cells by SRB assay.
The test system of experiment [11] is PANC-1. The experiment is described as follows: Cytotoxicity against human PANC1 cells by SRB assay.
The test system of experiment [12] is SK-BR-3. The experiment is described as follows: Cytotoxicity against human SK-BR3 cells by SRB assay.
For experiment [13], the system named is SK-OV-3. Put plainly: Cytotoxicity against human SK-OV-3 cells by SRB assay.
A short description of experiment [14]: Cytotoxicity against human HMEC1 cells by SRB assay. To be noted: HMEC-1.
Experiment [15] deals with HeLa. Put plainly: Cytotoxicity against human aplidin-resistant HeLa cells by SRB assay.
For experiment [16], the system named is HeLa. The experiment is described as follows: Cytotoxicity against human HeLa cells by SRB assay.

As to `CCCCCCCCC/C(C)=C\C(=O)NCCc1c[nH]c2ccccc12` [GRANULATAMIDE A], the concentration for 50% growth inhibition (GI50) – broadly, the concentration giving 50% growth inhibition – in [1] was 12 µM; in experiment [2] it was 3.9 µM; in experiment [3], 6.7 µM; in experiment [4] it was 12.7 µM; in experiment [5], 6.8 µM; in experiment [6], 4.7 µM. Further, the concentration for 50% growth inhibition (GI50) is 2.2 µM in experiment [7]; 1.7 µM in experiment [8]; 6.7 µM in experiment [9]; 10.5 µM in experiment [10]; 10.4 µM in experiment [11]; 2.7 µM in [12]. Besides, the GI50 worked out at 11.6 µM in experiment [13] and 6.2 µM in [14].

Turning to `CCCCCCC/C(C)=C/C(C)=C\C(=O)NCCc1c[nH]c2ccccc12` [GRANULATAMIDE B], the concentration for 50% growth inhibition (GI50) in experiment [15] stood at 9 µM; in [1], 10 µM; in [2], 10.6 µM; in experiment [3], 8.2 µM; in experiment [4], 6.7 µM; in experiment [5] it was 4.3 µM. The GI50 in experiment [6] worked out at 3.5 µM; in experiment [7], 13.8 µM; in experiment [8], 7.7 µM; in experiment [9], 8.9 µM; in experiment [10], 8.6 µM; in experiment [11], 6.5 µM. The GI50 in experiment [12] turned out to be 6 µM; in experiment [16], 9.7 µM.
